From the NIST ThermoML archive (doi:10.1021/je700406p)

Experiment: wn = mass fraction of the nth substance listed
Conditions: Liquid, Vibrating tube method

CC(C)(N)CO [2-amino-2-methylpropan-1-ol] + O
Conditions	mass density [kg/m3]
342.92 K, 18002 kPa, w1 = 0.1997	979
342.92 K, 18994 kPa, w1 = 0.4976	961.7
342.92 K, 18999 kPa, w1 = 0.1997	979.2
342.92 K, 19993 kPa, w1 = 0.4976	962.1
342.92 K, 20029 kPa, w1 = 0.1997	979.8
342.92 K, 21004 kPa, w1 = 0.1997	980.2
342.92 K, 21021 kPa, w1 = 0.4976	962.5
342.92 K, 22004 kPa, w1 = 0.1997	980.6
342.92 K, 23001 kPa, w1 = 0.1997	981
342.92 K, 24005 kPa, w1 = 0.1997	981.5
342.93 K, 1004 kPa, w1 = 0.4002	962.4
342.93 K, 2006 kPa, w1 = 0.4002	962.8
342.93 K, 3009 kPa, w1 = 0.4002	963.3
342.93 K, 4013 kPa, w1 = 0.4002	963.7
342.93 K, 4998 kPa, w1 = 0.4002	964.2
342.93 K, 5995 kPa, w1 = 0.4002	964.6
342.93 K, 6996 kPa, w1 = 0.4002	965
342.93 K, 7995 kPa, w1 = 0.4002	965.5
342.93 K, 8994 kPa, w1 = 0.4002	965.9
342.93 K, 10004 kPa, w1 = 0.4002	966.3
342.93 K, 10993 kPa, w1 = 0.4002	966.8
342.93 K, 12000 kPa, w1 = 0.4002	967.2
342.93 K, 12990 kPa, w1 = 0.4002	967.6
342.93 K, 13993 kPa, w1 = 0.4002	968
342.93 K, 14985 kPa, w1 = 0.4002	968.5
342.93 K, 15999 kPa, w1 = 0.4002	968.9
342.93 K, 16987 kPa, w1 = 0.4002	969.3
342.93 K, 17994 kPa, w1 = 0.4002	969.8
342.93 K, 18984 kPa, w1 = 0.4002	970.2
342.93 K, 19987 kPa, w1 = 0.4002	970.6
342.93 K, 20996 kPa, w1 = 0.4002	971
352.84 K, 1007 kPa, w1 = 0.4002	954.4
352.84 K, 2012 kPa, w1 = 0.4002	954.9
352.84 K, 3000 kPa, w1 = 0.4002	955.3
352.84 K, 4011 kPa, w1 = 0.4002	955.8
352.84 K, 5007 kPa, w1 = 0.4002	956.3
352.84 K, 6009 kPa, w1 = 0.4002	956.7
352.84 K, 7008 kPa, w1 = 0.4002	957.2
352.84 K, 8014 kPa, w1 = 0.4002	957.6
352.84 K, 8988 kPa, w1 = 0.4002	958.1
352.84 K, 9986 kPa, w1 = 0.4002	958.5
352.84 K, 11001 kPa, w1 = 0.4002	959
352.84 K, 12004 kPa, w1 = 0.4002	959.5
352.84 K, 12991 kPa, w1 = 0.4002	959.8
352.84 K, 13986 kPa, w1 = 0.4002	960.3
352.84 K, 14991 kPa, w1 = 0.4002	960.8
352.84 K, 15997 kPa, w1 = 0.4002	961.2
352.84 K, 16988 kPa, w1 = 0.4002	961.6
352.84 K, 17995 kPa, w1 = 0.4002	962
352.84 K, 18987 kPa, w1 = 0.4002	962.5
352.84 K, 19995 kPa, w1 = 0.4002	962.9
352.84 K, 20986 kPa, w1 = 0.4002	963.3
352.85 K, 997 kPa, w1 = 0.2821	961.9
352.85 K, 2011 kPa, w1 = 0.2821	962.4
352.85 K, 2994 kPa, w1 = 0.2821	962.8
352.85 K, 4000 kPa, w1 = 0.2821	963.2
352.85 K, 5006 kPa, w1 = 0.2821	963.7
352.85 K, 6000 kPa, w1 = 0.2821	964.1
352.85 K, 6999 kPa, w1 = 0.2821	964.5
352.85 K, 7996 kPa, w1 = 0.2821	965
352.85 K, 8992 kPa, w1 = 0.2821	965.4
352.85 K, 9994 kPa, w1 = 0.2821	965.8
352.85 K, 10987 kPa, w1 = 0.2821	966.2
352.85 K, 12010 kPa, w1 = 0.2821	966.7
